Results from ChEMBL document CHEMBL3769336, “Discovery of a Chemical Tool Inhibitor Targeting the Bromodomains of TRIM24 and BRPF” (J Med Chem, 2016).

Biological target: T1, Bromodomain-containing protein 1 (Homo sapiens, UniProt O95696)
T1 sequence (O95696 whole entry): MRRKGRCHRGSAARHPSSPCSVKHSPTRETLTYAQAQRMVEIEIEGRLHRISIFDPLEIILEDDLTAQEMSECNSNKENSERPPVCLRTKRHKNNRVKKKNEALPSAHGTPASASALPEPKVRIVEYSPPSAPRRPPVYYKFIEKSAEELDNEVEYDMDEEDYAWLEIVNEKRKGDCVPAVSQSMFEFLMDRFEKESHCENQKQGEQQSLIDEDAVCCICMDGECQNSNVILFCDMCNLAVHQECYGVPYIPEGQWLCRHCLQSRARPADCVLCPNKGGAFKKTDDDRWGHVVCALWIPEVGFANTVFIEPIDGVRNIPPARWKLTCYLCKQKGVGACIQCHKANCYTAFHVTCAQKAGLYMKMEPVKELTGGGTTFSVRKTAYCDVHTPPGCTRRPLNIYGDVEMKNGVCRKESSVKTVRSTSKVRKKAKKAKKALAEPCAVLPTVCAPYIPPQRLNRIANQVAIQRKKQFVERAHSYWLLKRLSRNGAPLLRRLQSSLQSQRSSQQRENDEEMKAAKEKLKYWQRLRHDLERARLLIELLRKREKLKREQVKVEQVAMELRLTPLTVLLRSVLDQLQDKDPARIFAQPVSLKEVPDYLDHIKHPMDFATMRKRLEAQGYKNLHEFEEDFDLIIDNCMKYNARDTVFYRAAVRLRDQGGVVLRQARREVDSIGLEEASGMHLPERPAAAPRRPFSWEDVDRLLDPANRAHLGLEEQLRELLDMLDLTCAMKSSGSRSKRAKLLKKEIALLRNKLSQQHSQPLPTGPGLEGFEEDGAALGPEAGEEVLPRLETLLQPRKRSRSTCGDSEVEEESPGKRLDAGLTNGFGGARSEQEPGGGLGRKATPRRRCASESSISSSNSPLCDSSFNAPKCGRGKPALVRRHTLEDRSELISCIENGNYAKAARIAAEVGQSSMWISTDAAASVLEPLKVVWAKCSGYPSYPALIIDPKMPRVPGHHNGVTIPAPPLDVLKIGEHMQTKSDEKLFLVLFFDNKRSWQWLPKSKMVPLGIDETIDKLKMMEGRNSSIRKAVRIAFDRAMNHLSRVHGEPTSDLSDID
Test: Binding affinity to BRPF2 BRD1 (unknown origin) by isothermal titration calorimetry

COc1ccc(Oc2cc3c(cc2NS(=O)(=O)c2ccc(OC)c(OC)c2)n(C)c(=O)n3C)cc1
Kd: 1130 nM
